Reference: publication PMC5341070, “Small molecule inhibitors block Gas6-inducible TAM activation and tumorigenicity” (Scientific Reports, 2017)

Tests used:
PDGFRB = PDGFRB (Homo sapiens, UniProt P09619); experiment: KINOMEscan profiling at […]; assay type: binding; parameters: gene PDGFRB; kinase domain
RET = target: T1, RET (Homo sapiens, UniProt P07949); experiment: KINOMEscan profiling at […]; assay type: binding
T1 construct: kinase domain

KIT [1] = target: T2, KIT (Homo sapiens, UniProt P10721)
Target sequence in this assay (P10721 589-937 limits assumed): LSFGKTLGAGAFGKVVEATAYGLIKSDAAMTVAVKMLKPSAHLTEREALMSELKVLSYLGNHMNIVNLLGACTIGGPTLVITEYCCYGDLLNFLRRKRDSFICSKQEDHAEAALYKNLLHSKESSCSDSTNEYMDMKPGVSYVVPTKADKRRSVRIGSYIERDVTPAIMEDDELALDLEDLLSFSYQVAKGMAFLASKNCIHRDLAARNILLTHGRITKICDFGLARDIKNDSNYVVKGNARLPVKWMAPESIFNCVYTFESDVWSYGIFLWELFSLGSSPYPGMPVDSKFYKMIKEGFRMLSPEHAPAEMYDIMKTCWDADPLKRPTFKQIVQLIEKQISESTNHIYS

FLT3 [2] = target: T3, FLT3 (Homo sapiens, UniProt P36888); experiment: KINOMEscan profiling at […]; assay type: binding
T3 construct: kinase domain

AXL [3] = target: AXL (Homo sapiens, UniProt P30530); experiment: biochemical; parameters: KINOMEscan (DiscoverX) competition binding screen of 97 human kinases, percent of control at 10 uM; settings: binding competition, % of control; binder
Protocol: (§1) The KINOMEscan profiling of the inhibitors were performed as per directions by the manufacturer (DiscoverX) against a panel of human protein kinases.
Target sequence in this assay (P30530 whole entry): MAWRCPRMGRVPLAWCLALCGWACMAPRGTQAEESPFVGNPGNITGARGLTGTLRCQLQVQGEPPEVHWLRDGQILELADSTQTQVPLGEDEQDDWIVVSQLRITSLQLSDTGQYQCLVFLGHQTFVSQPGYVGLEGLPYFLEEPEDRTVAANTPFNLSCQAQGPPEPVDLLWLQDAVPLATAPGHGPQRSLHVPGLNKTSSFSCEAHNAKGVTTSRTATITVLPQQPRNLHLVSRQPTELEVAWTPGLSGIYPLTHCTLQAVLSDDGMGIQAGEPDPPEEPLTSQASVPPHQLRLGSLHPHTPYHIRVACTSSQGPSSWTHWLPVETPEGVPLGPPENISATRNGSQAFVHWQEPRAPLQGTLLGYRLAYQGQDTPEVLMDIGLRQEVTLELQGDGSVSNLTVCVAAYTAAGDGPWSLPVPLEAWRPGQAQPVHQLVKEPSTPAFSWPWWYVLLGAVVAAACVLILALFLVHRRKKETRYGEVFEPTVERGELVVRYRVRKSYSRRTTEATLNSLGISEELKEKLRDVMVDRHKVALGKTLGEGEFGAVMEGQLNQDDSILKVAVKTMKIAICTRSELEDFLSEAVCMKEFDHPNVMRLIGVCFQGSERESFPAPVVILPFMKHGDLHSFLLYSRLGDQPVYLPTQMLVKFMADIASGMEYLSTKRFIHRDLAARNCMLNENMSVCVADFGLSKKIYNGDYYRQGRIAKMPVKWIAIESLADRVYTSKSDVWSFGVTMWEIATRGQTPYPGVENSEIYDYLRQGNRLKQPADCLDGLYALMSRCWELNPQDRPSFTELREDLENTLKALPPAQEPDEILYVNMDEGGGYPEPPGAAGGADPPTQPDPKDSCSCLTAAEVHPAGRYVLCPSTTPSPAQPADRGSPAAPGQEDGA

VEGFR2 = VEGFR2 (Homo sapiens, UniProt P35968); experiment: KINOMEscan profiling at […]; assay type: binding; parameters: gene KDR; kinase domain
TIE2 = TIE2 (Homo sapiens, UniProt Q02763); experiment: KINOMEscan profiling at […]; assay type: binding; parameters: gene TEK; kinase domain
AXL [4] = target: AXL (Homo sapiens, UniProt P30530); experiment: biochemical; parameters: KINOMEscan (DiscoverX) competition binding screen of 97 human kinases, percent of control at 10 uM; settings: binding competition, % of control; read-out: RU-301 %Ctrl @ 10000nM
Protocol: as §1
Target sequence in this assay (P30530 whole entry): as above

FLT3 [5] = target: FLT3 (Homo sapiens, UniProt P36888); experiment: biochemical; parameters: KINOMEscan (DiscoverX) competition binding screen of 97 human kinases, percent of control at 10 uM; settings: binding competition, % of control; read-out: RU-301 %Ctrl @ 10000nM
Protocol: as §1

KIT [6] = target: T2, KIT; experiment: biochemical; parameters: KINOMEscan (DiscoverX) competition binding screen of 97 human kinases, percent of control at 10 uM; settings: binding competition, % of control; read-out: RU-301 %Ctrl @ 10000nM
Protocol: as §1
Target sequence in this assay (P10721 whole entry): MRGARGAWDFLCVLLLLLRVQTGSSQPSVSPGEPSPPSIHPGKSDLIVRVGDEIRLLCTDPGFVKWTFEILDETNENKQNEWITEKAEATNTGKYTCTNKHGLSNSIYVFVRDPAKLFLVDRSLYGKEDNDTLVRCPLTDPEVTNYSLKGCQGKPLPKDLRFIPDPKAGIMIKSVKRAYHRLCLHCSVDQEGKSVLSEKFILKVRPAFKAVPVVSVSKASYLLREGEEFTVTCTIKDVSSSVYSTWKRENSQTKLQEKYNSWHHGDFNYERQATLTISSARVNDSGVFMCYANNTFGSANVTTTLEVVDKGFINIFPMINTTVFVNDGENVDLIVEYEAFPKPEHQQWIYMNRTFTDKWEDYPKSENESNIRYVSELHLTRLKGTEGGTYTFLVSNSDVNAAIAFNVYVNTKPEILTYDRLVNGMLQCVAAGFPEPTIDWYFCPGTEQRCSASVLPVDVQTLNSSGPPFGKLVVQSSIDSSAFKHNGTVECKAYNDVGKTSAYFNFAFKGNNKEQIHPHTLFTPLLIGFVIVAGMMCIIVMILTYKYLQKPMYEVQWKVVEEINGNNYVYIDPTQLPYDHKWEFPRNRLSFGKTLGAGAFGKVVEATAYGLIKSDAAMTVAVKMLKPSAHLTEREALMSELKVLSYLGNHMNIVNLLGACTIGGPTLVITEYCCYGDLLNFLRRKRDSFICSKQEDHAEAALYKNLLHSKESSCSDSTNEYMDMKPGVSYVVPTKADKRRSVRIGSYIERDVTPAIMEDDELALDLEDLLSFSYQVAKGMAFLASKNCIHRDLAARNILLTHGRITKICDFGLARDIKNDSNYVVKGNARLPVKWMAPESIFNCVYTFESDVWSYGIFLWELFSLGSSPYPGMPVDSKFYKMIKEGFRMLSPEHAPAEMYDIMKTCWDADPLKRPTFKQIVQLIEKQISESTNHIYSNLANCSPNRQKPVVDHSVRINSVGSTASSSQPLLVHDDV

ABL1-phosphorylated = target: T4, ABL1-phosphorylated (Homo sapiens, UniProt P00519); experiment: biochemical; parameters: KINOMEscan (DiscoverX) competition binding screen of 97 human kinases, percent of control at 10 uM; settings: binding competition, % of control; read-out: RU-301 %Ctrl @ 10000nM
T4 construct: phosphorylated
Protocol: as §1

Axl [7] = target: T5, Axl (Homo sapiens, UniProt P30530+Q14393); experiment: Gas6-induced hAxl/IFN-γR1 CHO reporter (pSTAT1) inhibition; sAxl-Gas6 pull-down partially inhibited; assay type: cell-based
T5 construct: extracellular and trans-membrane domain of Axl fused to IFN-γR1 intracellular domain; with Gas6
T5 sequence (P30530 26-472 limits assumed): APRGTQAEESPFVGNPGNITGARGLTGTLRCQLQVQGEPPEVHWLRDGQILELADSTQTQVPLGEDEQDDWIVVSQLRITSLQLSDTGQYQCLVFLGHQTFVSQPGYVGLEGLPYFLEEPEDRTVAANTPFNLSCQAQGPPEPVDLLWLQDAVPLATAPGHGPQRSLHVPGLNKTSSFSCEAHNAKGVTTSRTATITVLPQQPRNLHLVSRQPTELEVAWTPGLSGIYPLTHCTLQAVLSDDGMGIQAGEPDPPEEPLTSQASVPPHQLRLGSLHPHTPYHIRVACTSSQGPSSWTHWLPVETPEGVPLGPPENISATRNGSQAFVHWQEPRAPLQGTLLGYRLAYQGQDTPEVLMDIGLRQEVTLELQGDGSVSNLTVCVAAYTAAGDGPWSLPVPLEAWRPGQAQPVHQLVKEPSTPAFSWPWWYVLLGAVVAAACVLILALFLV
T5 sequence (Q14393 31-678): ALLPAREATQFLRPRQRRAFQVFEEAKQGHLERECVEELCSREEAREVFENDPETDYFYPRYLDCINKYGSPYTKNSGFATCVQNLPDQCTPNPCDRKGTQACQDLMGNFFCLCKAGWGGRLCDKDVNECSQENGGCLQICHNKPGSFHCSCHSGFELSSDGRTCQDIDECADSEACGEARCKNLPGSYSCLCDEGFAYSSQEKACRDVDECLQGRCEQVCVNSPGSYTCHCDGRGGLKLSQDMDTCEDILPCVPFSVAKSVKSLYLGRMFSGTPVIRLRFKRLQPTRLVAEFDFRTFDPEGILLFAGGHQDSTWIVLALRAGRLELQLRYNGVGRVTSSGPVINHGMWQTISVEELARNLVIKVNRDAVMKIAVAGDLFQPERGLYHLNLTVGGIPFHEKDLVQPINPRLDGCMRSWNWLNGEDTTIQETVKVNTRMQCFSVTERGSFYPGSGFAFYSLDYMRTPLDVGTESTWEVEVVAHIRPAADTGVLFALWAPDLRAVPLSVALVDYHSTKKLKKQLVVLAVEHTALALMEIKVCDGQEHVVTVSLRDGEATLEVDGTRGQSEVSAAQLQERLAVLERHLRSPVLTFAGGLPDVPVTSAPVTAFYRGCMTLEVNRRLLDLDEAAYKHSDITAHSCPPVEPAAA

VEGFR2, sequence (P35968 789-1356 limits assumed): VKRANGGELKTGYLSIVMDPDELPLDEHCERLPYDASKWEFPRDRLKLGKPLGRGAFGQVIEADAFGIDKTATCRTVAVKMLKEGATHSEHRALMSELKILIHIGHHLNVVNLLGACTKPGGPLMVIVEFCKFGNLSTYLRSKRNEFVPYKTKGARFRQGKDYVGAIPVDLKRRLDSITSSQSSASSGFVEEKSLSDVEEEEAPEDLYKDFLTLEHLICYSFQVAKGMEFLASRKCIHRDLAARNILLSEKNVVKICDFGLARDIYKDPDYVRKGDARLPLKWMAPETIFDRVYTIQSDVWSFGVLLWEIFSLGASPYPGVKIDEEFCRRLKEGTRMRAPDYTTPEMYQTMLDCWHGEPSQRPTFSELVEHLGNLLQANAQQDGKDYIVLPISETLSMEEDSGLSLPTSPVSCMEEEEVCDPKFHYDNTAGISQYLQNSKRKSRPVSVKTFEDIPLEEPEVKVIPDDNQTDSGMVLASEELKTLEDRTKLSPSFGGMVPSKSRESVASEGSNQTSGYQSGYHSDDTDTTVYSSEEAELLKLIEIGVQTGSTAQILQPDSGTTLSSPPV
T4 sequence (P00519 whole entry): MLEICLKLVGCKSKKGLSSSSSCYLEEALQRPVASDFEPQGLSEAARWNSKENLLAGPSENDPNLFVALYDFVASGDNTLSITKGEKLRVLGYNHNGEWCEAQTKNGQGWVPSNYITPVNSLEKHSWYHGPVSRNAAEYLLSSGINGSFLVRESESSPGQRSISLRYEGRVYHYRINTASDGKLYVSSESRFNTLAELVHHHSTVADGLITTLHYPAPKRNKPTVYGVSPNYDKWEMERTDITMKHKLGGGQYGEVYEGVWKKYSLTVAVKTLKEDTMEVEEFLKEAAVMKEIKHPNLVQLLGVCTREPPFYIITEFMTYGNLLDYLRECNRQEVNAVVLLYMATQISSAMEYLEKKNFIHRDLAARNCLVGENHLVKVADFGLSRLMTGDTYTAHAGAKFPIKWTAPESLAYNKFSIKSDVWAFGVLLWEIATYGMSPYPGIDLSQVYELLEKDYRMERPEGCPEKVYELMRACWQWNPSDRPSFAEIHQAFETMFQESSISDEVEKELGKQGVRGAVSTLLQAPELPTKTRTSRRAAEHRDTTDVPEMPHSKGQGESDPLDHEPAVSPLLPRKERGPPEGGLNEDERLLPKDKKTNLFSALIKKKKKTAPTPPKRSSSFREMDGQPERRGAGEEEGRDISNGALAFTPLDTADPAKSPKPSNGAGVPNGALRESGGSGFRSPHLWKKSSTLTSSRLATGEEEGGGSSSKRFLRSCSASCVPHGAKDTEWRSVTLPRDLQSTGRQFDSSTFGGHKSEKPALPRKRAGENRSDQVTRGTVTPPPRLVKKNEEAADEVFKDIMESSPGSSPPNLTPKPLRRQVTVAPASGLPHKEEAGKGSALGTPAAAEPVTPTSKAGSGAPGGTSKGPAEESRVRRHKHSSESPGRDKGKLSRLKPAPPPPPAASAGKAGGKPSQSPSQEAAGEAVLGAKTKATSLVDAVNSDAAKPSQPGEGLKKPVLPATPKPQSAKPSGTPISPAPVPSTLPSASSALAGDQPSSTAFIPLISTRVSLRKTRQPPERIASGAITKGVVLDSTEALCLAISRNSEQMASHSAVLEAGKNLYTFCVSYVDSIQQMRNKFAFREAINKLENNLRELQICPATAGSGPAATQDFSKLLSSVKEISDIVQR

R428 %Ctrl @ 10000nM (AXL [3]) [%] | remaining binding at 10 µM (AXL [4]) [%] | remaining binding at 10 µM (FLT3 [5]) [%] | remaining binding at 10 µM (KIT [6]) [%] | remaining binding at 10 µM (ABL1-phosphorylated) [%] | IC50 (Axl [7]) | Structure (SMILES) | KINOMEscan profiling at 10 uM (PDGFRB) | KINOMEscan profiling at 10 uM (RET) | KINOMEscan profiling at 10 uM (KIT [1]) | KINOMEscan profiling at 10 uM (FLT3 [2]) | KINOMEscan profiling at 10 uM (VEGFR2) | KINOMEscan profiling at 10 uM (TIE2)
0.1 | – | – | – | – | – | Nc1nc(Nc2ccc3c(c2)CC[C@@H](N2CCCC2)CC3)nn1-c1cc2c(nn1)-c1ccccc1CCC2 [R428] | R428 also bound to several other kinases, including Abl, Aurora kinases, KIT, PDGFR A and B | R428 also bound to several other kinases, including Abl, Aurora kinases, KIT, PDGFR A and B, RET | R428 also bound to several other kinases, including Abl, Aurora kinases, KIT | KIT, PDGFR A and B, RET, TIE2, VEGFR2, JAK2, JAK3 and FLT3 kinases | KIT, PDGFR A and B, RET, TIE2, VEGFR2, JAK2, JAK3 and FLT3 kinases | KIT, PDGFR A and B, RET, TIE2, VEGFR2, JAK2, JAK3 and FLT3 kinases
– | 89 | 99 | 96 | 81 | low micromolar | Cc1cc(CSc2ccccc2C(=O)NCCNc2ccc(C(F)(F)F)cc2[N+](=O)[O-])on1 [RU-301] | – | – | – | – | – | –
